Assay: Cytotoxicity against oysters heart cells at 0.5 ug/ml
Assay type: cell-based
Conditions: ostreidae

Compound	Activity
CC/C=C\C/C=C\C/C=C\C/C=C\C/C=C\CC(=O)OC[C@H](CO[C@@H]1O[C@H](CO)[C@H](O)[C@H](O)[C@H]1O)OC(=O)C/C=C\C/C=C\C/C=C\C/C=C\C/C=C\CC	Toxic
CC/C=C\C/C=C\C/C=C\C/C=C\C/C=C\CC(=O)OC[C@H](CO[C@@H]1O[C@H](CO)[C@H](O)[C@H](O)C1O)OC(=O)CCCC/C=C\C/C=C\C/C=C\C/C=C\CC (single isomer, unassigned)	Toxic
CC/C=C\C/C=C\C/C=C\C/C=C\C/C=C\CC(=O)OC[C@H](CO[C@@H]1O[C@H](CO[C@H]2O[C@H](CO)[C@H](O)[C@H](O)[C@H]2O)[C@H](O)[C@H](O)[C@H]1O)OC(=O)CCCC/C=C\C/C=C\C/C=C\C/C=C\CC	Toxic
